Measured values taken from patent publication US8163795B2, “Chroman derivatives, medicaments and use in therapy” (Marshall Edwards, Inc., priority 2004, dated 2012).

Key:
MM200 melanoma cell line [1] = assay: Proliferation assay (MTT); format: cell-based; settings: Table 2.2; Melanoma MM200; read-out: IC50
[2] = tested on: MDA-MB-468 breast cancer cell line; assay: Proliferation assay (MTT); format: cell-based; settings: Homo sapiens, MDA-MB-468, Table 2.2; Breast MDA-MB-468; read-out: IC50
[3] = tested on: CP70 ovarian cancer cell line; assay: Proliferation assay (MTT); format: cell-based; settings: Table 2.2 (further studies); Ovarian CP70; read-out: IC50
HTB-138 (Glioma) = assay: Proliferation assay (MTT); format: cell-based; settings: Table 2.2; Glioma HTB-138
Description: (§1) All cultures were supplemented with 10% FCS (fetal calf serum CSL, Australia), penicillin (100 U/ml), streptomycin ([…]), L-glutamine (2 mM) and sodium bicarbonate (1.2 g/L), and cultured at 37° C. in a humidified atmosphere of 5% CO2. All cell lines were purchased from ATCC (Maryland, USA) except where noted.
(§2) IC50 values were determined for each cell line. Cells were seeded in 96-well plates at an appropriate cell density as determined from growth kinetics analysis and cultured for 5 days in the absence and presence of the test compounds. Cell proliferation was assessed after the addition of 20 μl of 3-4,5 dimethylthiazol-2,5-diphenyl tetrazolium bromide (MTT, 2.5 mg/ml in PBS, Sigma) for 3-4 hrs at 37° C. according to manufacturer's instructions. IC50 values were calculated from semi-log plots of % of control proliferation on the y-axis against log dose on the x-axis.

HT-29 (Colorectal) = assay: Proliferation assay (MTT); format: cell-based; settings: Homo sapiens, HT-29, Table 2.2; Colorectal HT-29
Description: as §1, §2

NCI-H460 (Lung) = assay: Proliferation assay (MTT); format: cell-based; settings: Homo sapiens, NCI-H460, Table 2.2; NSC Lung NCI-H460
Description: as §1, §2

[4] = tested on: PC3 prostate cancer cell line; assay: Proliferation assay (MTT); format: cell-based; settings: Table 2.2
Description: as §1, §2

CCRF-CEM (Leukemic) = assay: Proliferation assay (MTT); format: cell-based; settings: Homo sapiens, CCRF-CEM, Table 2.2; Leukaemia CCRF-CEM
Description: as §1, §2

[5] = tested on: HPAC (CRL-2119) pancreatic cancer cell line; assay: Proliferation assay (MTT); format: cell-based, human; settings: Homo sapiens, HPAC, Table 2.2; Pancreatic HPAC; read-out: IC50
TXB2 = assay: Eicosanoid synthesis in LPS-stimulated murine macrophages (RAW 264.7); format: cell-based, mouse; settings: 10 μM; negative values indicate inhibition
Description: (§3) The mouse macrophage cell line RAW 264.7 was cultured in DMEM supplemented with foetal calf serum (FCS), 2 mM glutamine and 50 U/ml penicillin/streptomycin. Subconfluent cells were detached from the flask by gentle scraping and 24-well plates seeded at 5×10^5 cells per well and allowed to adhere for 1 hr. Cells were then treated either test compound at a concentration of 10 μM (in 0.025% DMSO) or vehicle alone, and incubated for 1 hr. LPS 50 ng/ml (LPS—Sigma-Aldrich) was then added. After incubation for 16 hrs, culture media was collected and stored at −80° C. for ecosanoid measurements using enzyme immunometric assays (PGE2 and TXB2—Cayman Chemical).
(§4) Table 16: Percentage change in eicosanoid synthesis after incubating test compound at 10 μM compared with incubation with vehicle alone.

PGE2 = assay: as above; format: cell-based, mouse; settings: 10 μM; negative values indicate inhibition
Description: as §3, §4

TNFα = assay: Inhibition of TNFα in LPS-stimulated murine macrophages (RAW 264.7); format: cell-based, mouse; settings: for Inhibition of TNFα, dose dependence: over the concentration ranges tested
Description: The mouse macrophage cell line RAW 264.7 was cultured in DMEM supplemented with FCS, 2 mM glutamine and 50 U/ml penicillin/streptomycin. Subconfluent cells were detached from the flask by gentle scraping and 24-well plates seeded at 5×10^5 cells per well and allowed to adhere for 1 hr. Cells were treated with either test agent (in 0.025% DMSO) or vehicle alone, 1 hr prior to the addition of 50 ng/ml LPS. After incubation for 16 hrs, culture media was collected and stored at −80° C. for TNFα measurement using an enzyme immunometric assay (Becton Dickinson).

[6] = tested on: Mel-RM melanoma cell line; assay: HMC combination with doxorubicin (synergy); format: cell-based; settings: Table 12, single agent
Description: (§5) IC50 values were determined for each cell line. Cells were seeded in 96-well plates at an appropriate cell density as determined from growth kinetics analysis and cultured for 5 days in the absence and presence of the test compounds. […] IC50 values were calculated from semi-log plots of % of control proliferation on the y-axis against log dose on the x-axis.
(§6) 3-D model analysis of the cytotoxic interaction between drug A and drug B enables the representation of predicted inhibitory effect of two drugs in combination in 3 dimensions to reveal actual regions of synergy or antagonism. […] Theoretical Additivity was calculated from the cytotoxicities of drug A and drug B as monotherapies using the following formula which assumes the drugs are mutually exclusive inhibitors: […]
HMC synergy with doxorubicin was assessed either in combination over 5 days exposure or in sequence (HMC→doxorubicin) against the Mel-RM melanoma cell line.

[7] = tested on: Mel-RM melanoma cell line; assay: HMC combination with gemcitabine (synergy); format: cell-based; settings: Table 9, single agent
Description: as §2
(§7) 3-D model analysis of the cytotoxic interaction between drug A and drug B enables the representation of predicted inhibitory effect of two drugs in combination in 3 dimensions to reveal actual regions of synergy or antagonism. The 3D synergy plots are based on a theory of “Theretical Additivity” (TA) as outlined by Kanzawa et al (Int. J. Cancer 71, 311-319 (1997)). Theoretical Additivity was calculated from the cytotoxicities of drug A and drug B as monotherapies using the following formula which assumes the drugs are mutually exclusive inhibitors: […]
(§8) The TA is calculated for each combination of drug concentrations and subtracted from the observed experimental effect for each combination to give a measurement of synergisitic action.
HMC synergy with gemcitabine was assessed either in combination over 5 days exposure or in sequence (HMC→gemcitabine) against the Mel-RM melanoma cell line. It was difficult to assess for synergisitic toxicity using a change in IC50 as a measure of synergy due to HMC toxicity as monotherapy (Table 9). […] Evidence of synergy using the HMC-gemcitabine combination was further assessed using the HMC→gemcitabine sequence (24 hr exposure to each compound in sequence) against the melanoma cell line Mel-RM. Using change in IC50 to assess for synergy it was noted that HMC at concentrations of 2 and 1 μM markedly chemosensitised the Mel-RM cells to gemcitabine by >1000 fold. HMC-induced chemosensitisation of Mel-RM cells to gemcitabine was confirmed using 3D analysis of the data.

4405 melanoma cell line = assay: HMC combination with paclitaxel (synergy); format: cell-based; settings: Table 10; single agent, 24 hr exposure; read-out: IC50, 24 hr (monotherapy)
Description: as §2, §7, §8
HMC synergy with paclitaxel was assessed either in combination over 5 days exposure or in sequence (HMC→paclitaxel) against the 4405 melanoma cell line. It was difficult to assess for synergisitic toxicity using a change in IC50 as a measure of synergy due to HMC toxicity as monotherapy (Table 10). […] Evidence of synergy using the HMC-paclitaxel combination was further assessed using the HMC→paclitaxel sequence (24 hr exposure to each compound in sequence) against the melanoma cell line 4405. Using change in IC50 to assess for synergy it was noted that HMC at concentrations of 2 μM markedly chemosensitised the 4405 cells to paclitaxel by >1000 fold (Table 10). HMC-induced chemosensitisation of […] cells to paclitaxel was confirmed using 3D analysis of the data.

MM200 melanoma cell line [8] = assay: HMC combination with topotecan (synergy); format: cell-based; settings: Table 11, single agent
Description: as §5, §6
HMC synergy with topotecan was assessed either in combination over 5 days exposure or in sequence (HMC→topotecan) against the MM200 melanoma cell line.

[9] = Concentration 10 μM, RAW 264.7, LPS 50 ng/ml, 16 hrs
[10] = 120 h, 5 days exposure, read-out: IC50, Combined (monotherapy)
[11] = 24 hr exposure, read-out: IC50, 24 hr (monotherapy)

SMILES	IC50 (MM200 melanoma cell line [1])	IC50 [2]	IC50 [3]	IC50 (HTB-138 (Glioma))	IC50 (HT-29 (Colorectal))	IC50 [4]	IC50 (CCRF-CEM (Leukemic))	IC50 [5]	Inhibition of TNFα (TNFα; Concentration 0.001 μM)	Inhibition of TNFα (TNFα; Concentration 0.1 μM)	Inhibition of TNFα (TNFα; Concentration 1 μM)	Inhibition of TNFα (TNFα; [9])	further results
Oc1ccc(C2COc3cc(O)ccc3C2c2ccccc2)cc1 (stereo not shown) [Compound 2, 3-(4-hydroxyphenyl)-4-phenylchroman-7-ol]	7.34 µM	1.9 µM	3 ± 1.2 µM	3.77 µM	59.4 µM	4.2 ± 0.02 µM	4.02 µM	24.4 ± 12 µM	–	–	–	–	IC50 (NCI-H460 (Lung)): 5.4 ± 2.1 µM; Percentage change in TXB2 synthesis vs vehicle alone (TXB2): 16%; Percentage change in PGE2 synthesis vs vehicle alone (PGE2): −12.6%
COc1ccc(C2c3ccc(O)cc3OCC2c2ccc(OC)c(OC)c2)cc1 (stereo not shown) [Compound 4, 3-(3,4-dimethoxyphenyl)-4-(4-methoxyphenyl)chroman-7-ol]	–	–	–	–	–	–	–	–	−14.3	−6.3	−11.9	−6.1	Inhibition of TNFα (TNFα; Concentration 0.01 μM): −11.3
COc1ccc(C2COc3cc(OC)ccc3C2c2ccc(OC)cc2)cc1 (stereo not shown) [Compound 6, 3-(4-methoxyphenyl)-4-(4-methoxyphenyl)-7-methoxychroman]	> 100 µM	28.7 ± 3.6 µM	> 100 µM	> 100 µM	> 100 µM	116 ± 57 µM	92 ± 81.6 µM	> 100 µM	1.0	−10.4	−13.0	−48.7	Inhibition of TNFα, dose dependence (TNFα): inhibit TNFα in murine macrophages in a dose dependent manner; Percentage change in TXB2 synthesis vs vehicle alone (TXB2): −16.4%; Percentage change in PGE2 synthesis vs vehicle alone (PGE2): −37.7%
COc1cc(O)cc(OC)c1C1c2ccc(O)cc2OCC1c1ccc(O)cc1 (stereo not shown) [Compound 7, 3-(4-hydroxyphenyl)-4-(2,6-dimethoxy-4-hydroxyphenyl)chroman-7-ol]	–	–	–	–	–	–	–	–	19.2	−1.4	−25.4	−26.2	Inhibition of TNFα, dose dependence (TNFα): inhibit TNFα in murine macrophages in a dose dependent manner
Nc1cccc(C2c3ccc(O)cc3OCC2c2ccc(O)cc2)c1 (stereo not shown) [Compound 14, 3-(4-hydroxyphenyl)-4-(3-aminophenyl)chroman-7-ol]	93 ± 2.9 µM	56.6 µM	> 100 µM	53.5 ± 14 µM	45 ± 4.7 µM	32.5 ± 2.1 µM	73 ± 51.6 µM	79 ± 56 µM	–	–	–	–	IC50 (NCI-H460 (Lung)): 65 µM
COc1cccc2c1C(=O)c1c(O)c3c(c(O)c1C2=O)C[C@@](O)(C(=O)CO)C[C@@H]3O[C@H]1C[C@H](N)[C@H](O)[C@H](C)O1 [Doxorubicin, doxorubicin, reference compound]	–	–	–	–	–	–	–	–	–	–	–	–	IC50 [6, 10]: 0.19 µM; IC50 [6, 11]: 0.1 µM
Nc1ccn([C@@H]2O[C@H](CO)[C@@H](O)C2(F)F)c(=O)n1 [Gemcitabine, gemcitabine, reference compound]	–	–	–	–	–	–	–	–	–	–	–	–	IC50 [7, 10]: 0.00388 µM; IC50 [7, 11]: 0.00467 µM
CC(=O)O[C@H]1C(=O)[C@@]2(C)[C@H]([C@H](OC(=O)c3ccccc3)[C@]3(O)C[C@H](OC(=O)[C@H](O)[C@@H](NC(=O)c4ccccc4)c4ccccc4)C(C)=C1C3(C)C)[C@]1(OC(C)=O)CO[C@@H]1C[C@@H]2O [Paclitaxel, paclitaxel, reference compound]	–	–	–	–	–	–	–	–	–	–	–	–	IC50 (4405 melanoma cell line): 0.000584 µM
CC[C@@]1(O)C(=O)OCc2c1cc1n(c2=O)Cc2cc3c(CN(C)C)c(O)ccc3nc2-1 [Topotecan, topotecan, reference compound]	–	–	–	–	–	–	–	–	–	–	–	–	IC50 (MM200 melanoma cell line [8]; [10]): 0.095 µM; IC50 (MM200 melanoma cell line [8]; [11]): 2.22 µM
